Where two headings read alike, the source gives them in different places.
Legend:
AKT and ERK = test: Western blot of signaling pathways, AKT and ERK activity; format: cell-based; conditions: A375 melanoma cells
Method: (§1) A375 melanoma cells (BRAF^V600E mutant) were purchased from the American Type Culture Collection (Manassas, Va.) and grown in RPMI or DMEM, in the presence of fetal bovine serum (10%), 2 mM L-glutamine and antibiotics (100 IU/ml penicillin and […] streptomycin) purchased from Sigma Aldrich. Cells were maintained at 37° C., 5% CO2 atmosphere.
(§2) Cells, treated with compound for 24 hr, were lysed in RIPA buffer (CST, Danvers, Mass., USA) on ice and clarified by centrifugation. Equal amounts of proteins were resolved by SDS-PAGE and immunoblotted with indicated antibodies. The antigen-antibody complex was visualized and quantitated using an Odyssey system (LI-COR, Lincoln, Nebr., USA).

4EBP1 = test: Western blot, 4EBP1 dephosphorylation; format: cell-based; conditions: A375 melanoma cells
Method: as §1, §2

[1] = tested on: androgen receptor (AR), Akt; test: Everolimus-induced AR expression and Akt activity, apoptosis (FIG. 1); format: cell-based; conditions: in combination with everolimus
From the text: as §2

B-raf = conditions: cited from earlier work
MEK = test: Western blot, feedback activation of MEK; format: cell-based; conditions: melanoma cells, FIG. 5
Method: as §1, §2

[2] = tested on: androgen receptor, AKT, PARP; test: Western blot in LNCaP cells: androgen receptor, AKT, PARP cleavage; format: cell-based; conditions: FIG. 2
From the text: as §2

| Structure (SMILES) | AKT and ERK activity (AKT and ERK) | Inhibition of AKT (AKT and ERK; Western blot, FIG. 4) | dephosphorylation of 4EBP1 (4EBP1) | apoptosis [1] | everolimus-induced AR expression and Akt activity [1] | B-raf degradation (B-raf; A375 (V600E) versus CHL cells (wild type B-raf)) | B-raf degradation (B-raf; B-raf mutants E586K and L597V) | B-raf degradation (B-raf; B-raf mutants V600D, G469A, G469E, G596R, G466V, G594V in COS cells) | feedback activation of MEK (MEK) | Akt deactivation [2] |
| --- | --- | --- | --- | --- | --- | --- | --- | --- | --- | --- |
| CC(C)c1cc(-c2nnc(O)n2-c2ccc3c(ccn3C)c2)c(O)cc1O [ganetespib, 3-(2,4-DIHYDROXY-5- ISOPROPYL-PHENYL)-4-(1- METHYL-INDOL-5-YL)-5- HYDROXY-[1,2,4] TRIAZOLE] | effective in disrupting AKT and ERK activity | blocked by lower concentrations of ganetespib compared to BEZ-235 | could not completely dephosphorylate 4EBP1 | increased apoptosis | sufficient in blocking everolimus-induced AR expression and Akt activity |  |  |  |  |  |
| C=CCNC1=C2C[C@@H](C)C[C@H](OC)[C@H](O)[C@@H](C)/C=C(\C)[C@H](OC(N)=O)[C@@H](OC)/C=C\C=C(/C)C(=O)NC(=CC1=O)C2=O [Compound 17AAG] |  |  |  |  |  | B-raf was degraded more rapidly than in CHL cells | not sensitive to degradation | degraded more rapidly than wild type B-raf |  |  |
| Cn1c(=O)n(-c2ccc(C(C)(C)C#N)cc2)c2c3cc(-c4cnc5ccccc5c4)ccc3ncc21 [BEZ235, 2-methyl-2-[4-[3-methyl-2-oxo-8-(quinolin-3-yl)-2,3-dihydroimidazo[4,5-c]quinolin-1-yl]phenyl]propionitrile] | enhanced the activity of AKT and ERK |  | sufficient to dephosphorylate 4EBP1 |  |  |  |  |  | feedback activation of MEK observed | able to deactivate Akt |

— patent publication US20140315943A1, “COMBINATION THERAPY OF HSP90 INHIBITORY COMPOUNDS WITH MTOR/P13K INHIBITORS” (SYNTA PHARMACEUTICALS CORP., priority 2011, published 2014)
